The conditions of data set [1]: 298.15 K; 101.33 kPa; Liquid; Vibrating tube method.
Data set [2] is described as follows: excess molar enthalpy (molar enthalpy of mixing); xn = mol fraction of the nth substance listed. Particulars: 298.15 K, 101 kPa, Liquid, Flow calorimetry.

Numbers after ± are expanded uncertainties.

In general, mass density refers to mass per unit of volume. For `C=C(C)CC(C)(C)C` [2,4,4-trimethyl-1-pentene], the mass density in data set [1] is reported as 710.7 ± 0.2 kg/m3.
On to `C=C(C)CC(C)(C)C` [2,4,4-trimethyl-1-pentene] + CO, for which the excess molar enthalpy came to 0.0571 ± 0.00287 kcal/mol in data set [2] (x2 = 0.023); 0.107 ± 0.00526 kcal/mol in data set [2] (x2 = 0.1); 0.125 ± 0.00621 kcal/mol in data set [2] (x2 = 0.198); 0.138 ± 0.00669 kcal/mol in data set [2] (x2 = 0.301); 0.14 ± 0.00669 kcal/mol in data set [2] (x2 = 0.398); 0.14 ± 0.00669 kcal/mol in data set [2] (x2 = 0.498). The excess molar enthalpy in data set [2] (x2 = 0.598) came to 0.135 ± 0.00645 kcal/mol; in data set [2] (x2 = 0.698) it was 0.122 ± 0.00598 kcal/mol; in data set [2] (x2 = 0.798), 0.102 ± 0.00502 kcal/mol; in data set [2] (x2 = 0.899), 0.0674 ± 0.00335 kcal/mol.
On to `C1CCCCC1` [cyclohexane], for which the mass density in data set [1] was 773.5 ± 0.2 kg/m3.
Regarding `C1CCCCC1` [cyclohexane] + CC(C)O, the excess molar enthalpy in data set [2] (x2 = 0.0995) was 0.124 ± 0.00598 kcal/mol; in data set [2] (x2 = 0.2009), 0.168 ± 0.00813 kcal/mol; in data set [2] (x2 = 0.3009), 0.191 ± 0.00932 kcal/mol; in data set [2] (x2 = 0.4014), 0.199 ± 0.00956 kcal/mol; in data set [2] (x2 = 0.5016), 0.191 ± 0.00932 kcal/mol; in data set [2] (x2 = 0.6011), 0.173 ± 0.00837 kcal/mol. Moreover, the excess molar enthalpy in data set [2] (x2 = 0.701) was 0.143 ± 0.00693 kcal/mol; in data set [2] (x2 = 0.8005), 0.105 ± 0.00526 kcal/mol; in data set [2] (x2 = 0.9005) it was 0.0571 ± 0.00287 kcal/mol.
Turning to `CO` [methanol], the mass density in data set [1] is recorded as 786.2 ± 0.2 kg/m3.
Consider `CC(C)O` [propan-2-ol], for which the mass density in data set [1] amounted to 780.8 ± 0.2 kg/m3.

The values above are taken from the NIST ThermoML archive (doi:10.1016/j.jct.2015.01.013).
